From PubChem BioAssay AID1996 come the findings set out here.

In brackets after ≈: the same amount, converted by molar mass.

For this data set the following is noted: buffer; pH 7.4; 200.0 µM.
By solubility (kinetic) is commonly meant solubility judged after dilution from a stock solution rather than from solid. `O=C(C1CCCN(S(=O)(=O)c2ccc(Cl)cc2)C1)N1CCCC1` (configuration not stated) had a kinetic solubility of 48.7 µg/mL (≈ 136 µM).

Consider `O=C(NCC(O)c1ccc([N+](=O)[O-])cc1)C1=COCCO1` (configuration not stated), for which the kinetic solubility is above 44.1 µg/mL. As for `OCCOCCOc1cccc2[nH]ccc12`, the solubility (kinetic) is 25.9 µg/mL (≈ 117 µM).

The compound `CCCCNC(=O)C1c2ccccc2Oc2ccccc21` displayed a solubility (kinetic) below 0.6 µg/mL. Then `CC(OC(=O)c1cnccn1)C(=O)c1ccccc1` (configuration not stated), with above 38.4 µg/mL; and `Cc1nc(N/C(N)=N/S(=O)(=O)c2ccccc2)nc2ccccc12`, with 3.6 µg/mL (≈ 10.5 µM); and `O=C(Nc1cccc2ncccc12)c1ccccc1Cl`, with 18.5 µg/mL (≈ 65.4 µM). For `COc1ccc2cc(S(=O)(=O)NCc3cccnc3)ccc2c1` the value was 13.8 µg/mL (≈ 42 µM); for `CCCCN(C(=O)c1ccco1)C1CCS(=O)(=O)C1` (configuration not stated), above 42.8 µg/mL; for `Cc1ccc(-c2onc3ccc(C(=O)/C=C/N(C)C)cc23)cc1`, 2.3 µg/mL (≈ 7.51 µM). Then `O=C(Nc1ccc(Cl)cc1)Nc1ccc(C(=O)N2CCOCC2)cc1`, with 1.1 µg/mL (≈ 3.06 µM); and `C=CCSc1nc2c(c(=O)[nH]1)C(c1ccccc1)C(C#N)=C(N)O2` (configuration not stated), with 48.7 µg/mL (≈ 144 µM). In turn, `O=C(O)c1ccccc1-c1ccccc1C(=O)Nc1ccccc1-c1ccccc1` displayed a solubility (kinetic) above 59 µg/mL.

With `Cn1cc(C(=O)OCC(=O)NC2(C#N)CCCC2)c2ccccc21`, the kinetic solubility was above 48.8 µg/mL. For `CC1CC(C)CN(C(=O)CSc2nnc(N)s2)C1` (configuration not stated) the value was above 43 µg/mL. Then `COc1ccc(-c2nc(S(=O)(=O)c3ccccc3)c(NCCCN3CCOCC3)o2)cc1`, with 67.8 µg/mL (≈ 148 µM); and `Cn1c(SCC(=O)Nc2cccnc2Cl)nc2ccccc21`, with 37.9 µg/mL (≈ 114 µM). In turn, `Cn1cccc1C(=O)OCC(=O)c1ccc(Br)s1` came in with a solubility (kinetic) of 7.9 µg/mL (≈ 24.1 µM). For `COc1ccccc1N1CCN(C(=O)c2cc3cc(F)ccc3[nH]2)CC1` the value was 0.7 µg/mL (≈ 1.98 µM); for `Cc1cc(C)c(C#N)c(SC(C(=O)NC(C)(C)C)c2ccccc2)n1` (configuration not stated), below 0.3 µg/mL. In the case of `COc1ccccc1/C=C/C(=O)NC(=S)N1CCN(C)CC1`, the kinetic solubility was above 47.9 µg/mL. Then `O=C(NCc1cccnc1)NC1CC(=O)N(c2ccc3c(c2)OCCO3)C1` (configuration not stated), with above 55.3 µg/mL; and `CC(=O)c1ccc(NC(=O)C2CCCC2)cc1`, with 32.6 µg/mL (≈ 141 µM); and `COC(=O)c1c(C)[nH]c(C(=O)/C=C/c2ccccc2F)c1C`, with 0.8 µg/mL (≈ 2.66 µM). Then `Cc1ccc(S(=O)(=O)Nc2ccc(F)c(S(=O)(=O)N3CCOCC3)c2)cc1`, with above 62.2 µg/mL; and `O=C(OCC(=O)N1CCOCC1)c1cc(-c2ccccc2)nc2ccccc12`, with 53.4 µg/mL (≈ 142 µM); and `CCCCNc1ccc2c3c(cccc13)C(=O)N(CCCC)C2=O`, with 2.1 µg/mL (≈ 6.47 µM). Then `NC(=O)COC(=O)Cc1coc2cc3c(cc12)CCC3`, with 35.6 µg/mL (≈ 130 µM).

`CCNc1nc(N)c(C(=O)C23CC4CC(CC(C4)C2)C3)s1` gave a solubility (kinetic) of 2 µg/mL (≈ 6.55 µM). Regarding `O=C(COc1ccccc1)Nc1nc2c(s1)CCCC2`, the kinetic solubility was found to be 3.7 µg/mL (≈ 12.8 µM).

Turning to `Cc1nnc(SCC(=O)NC(C)(C)C)n1NCc1cccc(Br)c1`, the kinetic solubility is above 61.9 µg/mL.

On to `COc1ccc(N(C)S(=O)(=O)c2cccc(C(=O)OCC(=O)N3CC(C)CC(C)C3)c2)cc1` (configuration not stated), for which the solubility (kinetic) was found to be 7.3 µg/mL (≈ 15.4 µM). Then `Cc1cc(C)c2c(CC(=O)NC3CCS(=O)(=O)C3)coc2c1` (configuration not stated), with 48.2 µg/mL (≈ 150 µM); and `Cc1ccnc(NS(=O)(=O)c2cc(C(F)(F)F)ccc2Cl)c1`, with 1.7 µg/mL (≈ 4.85 µM). For `COc1ccc(C2=NOC(C(=O)Nc3ccc4c(c3)OCO4)C2)cc1` (configuration not stated) the value was 1.6 µg/mL (≈ 4.7 µM); for `CC(=O)N(C)N(C)c1cc(C)nc(N)n1`, above 31.4 µg/mL.

Compound `CC(=O)Nc1ccc(S(=O)(=O)N(C)CC(=O)N2CCN(C(=O)c3ccco3)CC2)cc1` gave a solubility (kinetic) above 67.3 µg/mL. For `O=C(CSc1ccccc1F)NCC(c1cccs1)N1CCOCC1` (configuration not stated) the value was above 57.1 µg/mL; for `COc1ccc(NC(=S)NCc2ccccn2)cc1OC`, above 45.5 µg/mL. For the compound `COc1ccc(/C=C/c2cc(C(F)(F)F)on2)cc1`, the solubility (kinetic) turned out to be 1.3 µg/mL (≈ 4.83 µM). Then `CC(=O)N1CCN(c2ccc(NC(=O)c3cccc(C)c3)cc2)CC1`, with 7.7 µg/mL (≈ 22.8 µM); and `COC(=O)c1cn(S(=O)(=O)c2ccccc2)c2ccccc12`, with 2 µg/mL (≈ 6.34 µM); and `O=C(CN1C(=O)C(=O)c2ccccc21)NCCc1ccccc1`, with 43.1 µg/mL (≈ 140 µM). Then `COC(=O)NC1c2ccccc2Oc2ccc(C)cc21` (configuration not stated), with below 0.6 µg/mL; and `Cc1cc(C)n2c(SCC(=O)Nc3cccc(S(N)(=O)=O)c3)nnc2n1`, with above 58.9 µg/mL. Then `CC(=O)c1ccccc1NS(=O)(=O)c1cccc2nonc12`, with 0.9 µg/mL (≈ 2.84 µM); and `CCN(C(=O)COC(=O)c1ccc[nH]c1=O)c1cccc2ccccc12`, with above 52.6 µg/mL; and `Cc1ccc(CN2CCCN(Cc3ccccc3C)S2(=O)=O)cc1`, with 0.5 µg/mL (≈ 1.45 µM). In the case of `COCCCNc1nc2nonc2nc1N1CCN(C2CCCC2)CC1`, the kinetic solubility worked out at 45.9 µg/mL (≈ 127 µM).

As for `O=C(NCCN1CCOCC1)c1ccc(Cl)cc1`, the solubility (kinetic) is above 40.3 µg/mL. For `CC(Sc1nc2sccc2c(=O)n1-c1ccccc1)C(N)=O` (configuration not stated) the value was 43.5 µg/mL (≈ 131 µM). For `O=C(COC(=O)c1cccc([N+](=O)[O-])c1)NC1CCCC1` the value was 32.3 µg/mL (≈ 111 µM); for `Cc1cc(NC(=O)c2ccco2)c(=O)n(Cc2c(F)cccc2Cl)c1`, below 0.4 µg/mL.

For the compound `CCOc1ccc(C(=O)N2CCN(c3ccccn3)CC2)cc1`, the solubility (kinetic) was above 46.7 µg/mL. Then `O=C(CS(=O)CC(=O)NC12CC3CC(CC(C3)C1)C2)Nc1ccc(F)cc1` (configuration not stated), with 16.2 µg/mL (≈ 41.3 µM); and `C/C(N)=C(/C#N)C(=O)COC(=O)C1=NN(c2ccccc2)C(=O)CC1`, with above 51.1 µg/mL.

`Nc1ccc2c(c1)OC1(CCCCC1)O2`: the kinetic solubility came to 19.1 µg/mL (≈ 93.1 µM).

Regarding `COc1ccc(Cn2c(C(C)C)nc3sc4ccccc4c(=O)c3c2=O)cc1`, the kinetic solubility was below 0.4 µg/mL. For `CS/C(N)=N/C(=S)Nc1cccc(Cl)c1` the value was 31.4 µg/mL (≈ 121 µM). `CC(=O)c1ccc2noc(-c3ccc(C)cc3)c2c1` yielded a kinetic solubility of 26.2 µg/mL (≈ 104 µM). This solubility kinetic and that of the compound before are within 1.5-fold of each other. For `CC1SCC(NC(=O)c2ccccc2Cl)CS1` (configuration not stated) the value was above 43.2 µg/mL; for `CCCCn1c(Nc2ccc(OC)cc2)nc2ccccc21`, 0.6 µg/mL (≈ 2.03 µM).

The compound `CCOC(=O)c1sc(N)c(C(=O)OCC)c1C` yielded a solubility (kinetic) of 4.4 µg/mL (≈ 17.1 µM). Against the preceding compound, the solubility kinetic is about 7.3-fold higher. The compound `CC1CCN(CC(=O)Nc2cccc(Cl)c2)CC1` registered a solubility (kinetic) of 39.7 µg/mL (≈ 149 µM). For `Cc1cc(=O)oc2cc(OCCC[n+]3ccccc3)ccc12.[Br-]` the value was 53.6 µg/mL.

On to `Cc1occc1C(=O)Nc1cccc(S(=O)(=O)N2CCOCC2)c1`, for which the kinetic solubility stood at 52.2 µg/mL (≈ 149 µM).

`O=C(CNS(=O)(=O)c1c(F)cccc1F)NC1CCCc2ccccc21` (configuration not stated) gave a solubility (kinetic) above 57.1 µg/mL. For `Cc1ccc(NC(=O)CN2C(=O)S/C(=C/c3ccncc3)C2=O)cc1` the value was 2.2 µg/mL (≈ 6.23 µM); for `COc1cccc(Cn2c(=O)c3[nH]cnc3n(-c3ccccc3C)c2=O)c1`, above 54.4 µg/mL. For `COc1ccc(C)cc1NC(=O)Nc1ccc2c(c1)CCC2` the value was 0.7 µg/mL (≈ 2.36 µM). In the case of `Cc1ccc(-c2noc(-c3ccno3)n2)cc1`, the solubility (kinetic) amounted to 2.4 µg/mL (≈ 10.6 µM). For `COCCNc1c(-c2ccc(OC)cc2)nc2ccc(Cl)cn12`, the solubility (kinetic) is 38.4 µg/mL (≈ 116 µM). This solubility kinetic is about 16-fold higher than that of the compound before. Then `CC(NC(=O)Nc1ccccc1Cl)c1ccc2c(c1)OCO2` (configuration not stated), with below 0.3 µg/mL; and `Cc1nc(N2CCOCC2)c2c3c(sc2n1)CCC3`, with 34.4 µg/mL (≈ 125 µM); and `Nc1nc(SCC(=O)Nc2cccc(F)c2)n[nH]1`, with above 40.1 µg/mL.

With `Cc1cccc(NC(=O)Cn2cnc3c(oc4ccccc43)c2=O)c1`, the solubility (kinetic) is below 0.2 µg/mL. Then `CC(C)c1nc2sc3c(SCC(N)=O)ncnc3c2c2c1CCC2`, with 0.5 µg/mL (≈ 1.39 µM); and `CC(=O)C1=C(O)C(=O)N(Cc2ccccc2)C1c1ccc(F)cc1` (configuration not stated), with above 48.8 µg/mL. For `O=[N+]([O-])c1ccc(O)c(C=Nc2cccc3ccccc23)c1` the value was 24.6 µg/mL (≈ 84.2 µM).

`COc1cccc(OC)c1C(=O)OCC(=O)N1CCC(Cc2ccccc2)CC1` returned a solubility (kinetic) of 5.2 µg/mL (≈ 13.1 µM).

As to `CC(C)(C)NC(=O)C(OC(=O)c1cccs1)c1ccccc1` (configuration not stated), the kinetic solubility is 3.3 µg/mL (≈ 10.4 µM). On to `Cc1ccsc1C(=O)NC(C)c1ccccc1` (configuration not stated), for which the kinetic solubility was above 36.8 µg/mL. For `O=C(NC1CCCC1)c1ccccc1OCc1ccccc1` the value was 15 µg/mL (≈ 50.8 µM).

Compound `CCC1CN(C(=O)NCc2ccc(C)cc2)c2ccccc2O1` (configuration not stated) yielded a kinetic solubility of 20.8 µg/mL (≈ 67 µM). For `Cc1cnc(NC(=O)Cc2ccccc2Cl)s1` the value was 1.1 µg/mL (≈ 4.12 µM).

Compound `O=C(Nc1ccc(F)cc1)N1CCCN(c2nccc(C(F)(F)F)n2)CC1` returned a kinetic solubility of 57 µg/mL (≈ 149 µM).

Compound `COc1ccccc1C(=O)NC(=O)CSc1cccc[n+]1[O-]` showed a kinetic solubility above 47.8 µg/mL.

`COc1ccc(C(=O)O)cc1S(=O)(=O)N1CCSCC1`: the kinetic solubility is above 47.6 µg/mL. For `O=C(NCCCc1nc2ccccc2[nH]1)c1ccco1` the value was above 40.4 µg/mL. Compound `CCCn1c(O)c(N=N)c2ccccc21` returned a solubility (kinetic) above 30.5 µg/mL. On to `CC(=O)NC(=S)Nc1ccccc1F`, for which the kinetic solubility was above 31.8 µg/mL.

For `COC(=O)c1cnn2c1C(=O)N(Cc1cccs1)CC2`, the kinetic solubility is above 43.7 µg/mL. For `O=C(Nc1ccc2[nH]c(=O)[nH]c2c1)c1ccc([N+](=O)[O-])o1` the value was 15.6 µg/mL (≈ 54.1 µM). Then `Cc1cccc(C)c1NC(=O)C(=O)c1cn(C)c2ccccc12`, with below 0.3 µg/mL; and `Cc1cn(CC(=O)c2ccccc2)c2ccccc12`, with 1.2 µg/mL (≈ 4.81 µM); and `CCOC(=O)Cc1csc(NC(=O)CSc2nccn2C)n1`, with above 51.1 µg/mL. Then `COC(=O)[C@H](Cc1ccccc1)NC(=O)c1ccc2ccccc2n1`, with 23.6 µg/mL (≈ 70.6 µM); and `Cc1ccc(NC(=S)NC2CCSc3ccccc32)cc1` (configuration not stated), with 2.7 µg/mL (≈ 8.59 µM). Turning to `COc1cc(C(=O)OCC(C)=O)c([N+](=O)[O-])cc1OC`, the solubility (kinetic) is above 42.5 µg/mL. Then `CC(Oc1ccccc1)C(=O)OCC(=O)NC(=O)NC1CCCCC1` (configuration not stated), with 47.7 µg/mL (≈ 137 µM); and `Cc1ccccc1CSc1ncnc2ccccc12`, with 0.3 µg/mL (≈ 1.13 µM); and `Cn1c(N)c(C(=O)COC(=O)c2ccc(Cl)nc2)c(=O)n(C)c1=O`, with 46.2 µg/mL (≈ 131 µM).
